Data published in patent publication US12527764B2, “Methods and compositions for treating androgen receptor deficient, androgen receptor low, and castration-resistant prostate cancers” (FRED HUTCHINSON CANCER CENTER, priority 2019, dated 2026).

How the values were obtained:
[1] = system: 4ebp1 transcript expression; test: 4ebp1 transcript expression in castrate Pten^L/L cells under enzalutamide; format: cell-based, mouse; settings: further inhibition of AR
Description: Total RNA was isolated using RNeasy Plus Mini Kit (Qiagen) and reverse-transcribed with iScript Reverse Transcription Supermix (Bio-Rad). cDNA was diluted 1:1 with water. Quantitative PCR was performed with 1 μl cDNA using SsoAdvanced SYBR Supermix (Bio-Rad) with primer sets specific for Ar, 4ebp1, Cacul1, Denr, Klf5, Rps15, Gapdh, luciferase, RPS19, and actin (Table 3). Normalized mRNA expression was calculated using the comparative Ct method.

[2] = system: AR+ parental APIPC xenograft; test: AR+ parental APIPC xenograft preclinical trial; format: in vivo, intact NOD-scid IL2Rgamma^null mice; settings: uncastrated mice, 15 mg/kg intraperitoneal, versus vehicle
Description: (§1) 1×10^6 AR+ parental and AR− APIPC cells were resuspended 1:1 in Matrigel (Corning): RPMI-1640 (Gibco) and subcutaneously injected into the flanks of intact or castrate NOD-scid IL2Rgamma^null mice respectively. 1×1×1 mm^3 of LuCaP 173.2 tumor chunks were implanted into the flank of castrate mice. Tumor volume was calculated using the formula (L(W^2))/2, where L is the length of the tumor and W the width. When tumors reached 100 mm^3, animals were randomized to receive intraperitoneal injections of 15 mg/kg 4E1RCat (Selleckchem) or vehicle (5.2% PEG400 and 5.2% TWEEN80 in ddH2O), Monday-Friday.

[3] = system: AR− APIPC xenograft; test: AR− APIPC xenograft preclinical trial; format: in vivo; settings: 15 mg/kg intraperitoneal
Description: as §1

[4] = system: AR-null non-neuroendocrine LuCaP 173.2 PDX; test: LuCaP 173.2 PDX preclinical trial; format: in vivo; settings: 15 mg/kg intraperitoneal
Description: as §1

[5] = target: T1, eIF4E-eIF4G interaction (eIF4F complex) (Mus musculus, UniProt P63073); test: eIF4E-eIF4G proximity ligation assay in intact and castrate Pten^L/L cells; format: cell-based; settings: 50 μM, 24 hours
T1 construct: Pten^L/L intact and castrate cells were treated with 50 μM 4E2RCat (MedChemExpress) and 20 μM 4EGI-1 (Selleckchem) for 24 hours; endogenous in cells; host or cells: primary intact and castrate Pten L/L mouse prostate cancer cells
T1 sequence (P63073 whole entry, one chain of several): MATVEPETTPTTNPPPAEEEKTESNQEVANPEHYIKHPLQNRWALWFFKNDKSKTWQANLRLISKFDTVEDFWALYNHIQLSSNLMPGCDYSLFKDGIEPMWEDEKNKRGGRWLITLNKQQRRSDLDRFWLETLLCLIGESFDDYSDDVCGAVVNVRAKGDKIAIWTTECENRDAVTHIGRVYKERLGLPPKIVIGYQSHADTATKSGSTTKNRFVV
Description: (§2) The in-situ proximity ligation assay (PLA) was optimized to detect eIF4E-eIF4G or eIF4E-4EBP1 interactions in intact/castrate Pten^L/L and castrate Pten^L;4ebp1^M FFPE tissue sections and adherent cells. FFPE sections were deparaffinized, rehydrated, and subjected to antigen retrieval in a decloaking chamber at 95° C. for 30 min in Tris-based antigen unmasking solution, pH 9 (Vector). After 30 min blocking, primary antibody incubation was performed at 4° C. overnight: eIF4E (SCBT), eIF4G (CST), and 4EBP1 (CST).
(§3) Adherent cells were grown on coverslips placed in 6-well plates until 60-70% confluent. […] Permeabilized cells were washed using 1× wash buffer followed by 1 hour blocking in a humidity chamber at 37° C. Next, cells were incubated with primary antibodies: eIF4G (CST) and eIF4E (BD Biosciences) for 2 hours at room temperature.
(§4) After incubation with primary antibody, both FFPE tissues and adherent cells were subjected to incubation with secondary antibodies conjugated to oligonucleotides (PLA plus/minus probes) for 1 hour at 37° C. The two hybridized oligonucleotides were joined in a closed circle using a ligase at 37° C. for 30 min. The DNA was then amplified with rolling circle amplification, and detection of the amplicons was carried out using the Brightfield detection kit (Sigma).

[6] = system: primary castrate (DHT−) Pten^L/L cells; test: IncuCyte in vitro proliferation assay, primary castrate Pten^L/L cells; format: cell-based, mouse; settings: 48 hours, same drug concentrations as in intact cells
Description: (§5) Human APIPC cell lines were provided by P.S.N., and grown as previously described (11). PC3-4EBP1^M, VCaP, 22Rv1, C4-2, and LNCaP cells were cultured in RPMI-1640 with 10% FBS or phenol-red free RPMI with 10% charcoal stripped FBS (Gemini). Intact/castrate […] mouse prostates were harvested at 16 weeks of age, micro-dissected, and minced using a scalpel. Tissue chunks were incubated in 5 mg/ml collagenase II (Gibco) in Dulbecco's modified Eagle's medium for 1 hour at 37° C., followed by 5 min further digestion with TrypLE (Thermo Fisher). The dissociated cells were passed through a 40 µm nylon mesh (Falcon) to obtain single cells. Twenty thousand cells were embedded in 50 μl of Matrigel (Corning) and plated on 24-well ultra-low attachment plates (Corning). Medium components include the following: Advanced Dulbecco's Modified Eagle Medium containing B-27 supplement (Gibco), 1.25 mM N-Acetyl-L-cysteine (Sigma), 50 ng/ml EGF (Peprotech), 200 nM A83-01 (Tocris Bioscience), 500 ng/ml R-spondin1 (conditioned medium and R-spondin1 expressing plasmid provided by Y.C.), 10 μM Y-27632 (Sigma), and 100 ng/ml Noggin (Peprotech). […] Established organoids were passaged as 3D organoids or cultured as 2D cells. […] Cell proliferation was monitored by analyzing the occupied area (% confluence) of cell images over time. […]

[7] = system: primary intact (DHT+) Pten^L/L cells; test: IncuCyte in vitro proliferation assay, primary intact Pten^L/L cells; format: cell-based, mouse; settings: 48 hours, same drug concentrations as in castrate cells
Description: as §5

[8] = target: eIF4E-eIF4G interaction (eIF4F complex) (Homo sapiens, UniProt P06730); test: eIF4E-eIF4G proximity ligation assay in AR+ parental and AR− APIPC cells; format: cell-based; settings: 10 μM, 24 hours
Chain of eIF4E-eIF4G interaction (eIF4F complex) (Homo sapiens, UniProt P06730) (P06730 whole entry, one chain of several): as the sequence (P63073 whole entry, one chain of several) above, with T12P, P16T, A17T, D174E counted along it
Description: as §2, §3, §4

[9] = system: AR− APIPC prostate cancer cells; test: IncuCyte in vitro proliferation assay, AR+ parental versus AR− APIPC prostate cancer cells; format: cell-based, human; settings: AR-null APIPC cells compared with parental (AR+) cells, 48 hours
Description: as §5

[10] = system: de novo protein synthesis; settings: castrate Pten^L/L primary prostate cancer cells, 1 nM DHT add back, 48 hours
Description: FIG. 9D is a representative western blot of puromycin incorporation with or without addition of 1 nM DHT for 48 hours, which increases AR signaling, in castrate Pten^L/L primary prostate cancer cells (representative of 4 biological replicates).
Cells were lysed for 30 min on ice in lysis buffer containing 150 mM NaCl, 50 mM Tris, 4 mM KCl, 1 mM MgCl2 1 mM Na3VO4 10% glycerol, 1% Nonidet P-40, supplemented with phosphatase and protease inhibitor cocktails (Roche). Lysates were cleared by centrifugation at 12000 rpm for 15 min at 4° C. Supernatants were removed and assayed for protein concentration using the Protein Assay Dye Reagent (Bio-Rad). Equal amounts of proteins were subjected to SDS-PAGE and transferred to PVDF membranes (Bio-Rad). Membranes were blocked with 5% non-fat milk in PBS-Tween and were subsequently incubated with the following antibodies at 4° C. overnight: AR (N-terminus, Abcam), AR (C-terminus, SCBT), AR (GeneTex), p-AKT (S473, CST), p-AKT (T308, CST), eIF4E (BD Biosciences), eIF4A (CST), eIF4G (CST), 4EBP1 (CST), p-4EBP1 (Thr37/46, CST), KLF5 (Abcam), DENR (GeneTex), CACUL1 (GeneTex) FLAG (Sigma), RPS15 (Abcam), PTEN (CST), synaptophysin (CST), chromogranin A (Abcam). […] Signal detection was performed using the ChemiDoc Touch Imaging System (Bio-Rad) or standard film, and quantified using ImageJ.

[11] = castrated mice, Monday-Friday, versus vehicle

For `CNC(=O)c1ccc(N2C(=S)N(c3ccc(C#N)c(C(F)(F)F)c3)C(=O)C2(C)C)cc1F` [enzalutamide], the 4ebp1 transcript expression [1] was “does not impact”.

In the case of `O=C(O)c1ccc(N2C(=O)/C(=C/c3ccc(-c4ccc([N+](=O)[O-])cc4)o3)C=C2c2ccccc2)cc1` [4E1RCat, 4-[(3E)-3-[[5-(4-nitrophenyl)furan-2-yl]methylidene]-2-oxo-5-phenylpyrrol-1-yl]benzoic acid], the “tumor growth (sensitivity of the model)” value [2] is reported as “completely insensitive”, the “toxicity to mice (body weight)” value ([3]; castrated NSG mice) is reported as “without overt toxicity” and the survival [3, 11] is reported as “improvement”. For the same compound, the tumor growth [3, 11] was “marked decrease”, the “toxicity to mice (body weight)” value ([4]; castrated NSG mice) was “without overt toxicity” and the survival [4, 11] was “improvement”. For the same compound, the tumor growth [4, 11] was “marked decrease”.

With `O=C(O)c1cc(-c2ccc(/C=C3/SC(=S)N(Cc4ccccc4)C3=O)o2)ccc1Cl` [4E2RCat, 5-[5-[(E)-(3-Benzyl-4-oxo-2-sulfanylidene-1,3-thiazolidin-5-ylidene)methyl]furan-2-yl]-2-chlorobenzoic acid] the “eIF4F complex formation (proximity ligation assay)” value [5] was “disrupt eIF4F complex formation”, the “effect on cell proliferation” value [6] was “profound changes” and the “effect on cell proliferation” value [7] was “negligible effects”. For the same compound, the “eIF4F complex formation (proximity ligation assay)” value [8] was “disrupt eIF4F complex formation” and the “sensitivity of proliferation to eIF4E-eIF4G disruption” value [9] was “more sensitive”.

`C[C@]12CCC(=O)C[C@@H]1CC[C@@H]1[C@@H]2CC[C@]2(C)[C@@H](O)CC[C@@H]12` [DHT, dihydrotestosterone] was tested, and the “de novo protein synthesis (puromycin incorporation)” value [10] was “decreases”.

In the case of `O=C(O)C(Cc1ccccc1[N+](=O)[O-])=NNc1nc(-c2ccc(Cl)c(Cl)c2)cs1` [4EGI-1, α-[2-[4-(3,4-Dichlorophenyl)-2-thiazolyl]-hydrazinylidene]-2-nitrobenzene-propanoic acid], the “effect on cell proliferation” value [6] is reported as “profound changes”, the “effect on cell proliferation” value [7] is reported as “negligible effects” and the “sensitivity of proliferation to eIF4E-eIF4G disruption” value [9] is reported as “more sensitive”.
